# Measured values published in patent US20140066385A1, “METHOD FOR TREATING CANCER BY COMBINED USE OF DRUGS” (Astellas Pharma Inc., priority 2011, published 2014).
# Tests used:
# [1] = system: human non-small cell lung cancer (Calu-6); experiment: Example 4: administration timing of FK330 with paclitaxel in Calu-6 tumor-bearing mice; format: in vivo, nude mice; details: Day 55; for tumor volume at the end of the study: mean±SEM
# Description: Preparation of the test substances and conditioning of the cells were carried out in the same manner as in Example 2.
# (§1) Five-week old male nude mice (CAnN Cg-Foxn1nu/CrlCrlj(nu/nu)) were purchased from Charles River Laboratories Japan, Inc. (Japan, Kanagawa). The animals were raised under specific pathogen-free (SPF) conditions throughout the test period by feeding standard feedstuff and drinking water. The cultured cells were subcutaneously inoculated into the dorsal region of the nude mice at a concentration of 3×10^6 cells/0.1 mL/mouse. Nude mice which had the tumor volumes (major axis×[minor axis]^2×0.52) ranging from 142.1 mm^3 to 359.1 mm^3 were assigned by using SAS to minimize the fluctuation in the tumor volume between the groups and within the group.
# The first day of administration was designated as Day 0, and observation was made until Day 55. The respective groups (n=5 or 6) were treated as follows. FK330 was orally gavaged in an amount of 5 mL/kg, and paclitaxel was administered intravenously through the tail vein in an amount of 10 mL/kg. Paclitaxel was continuously administered from Day 0 to Day 5, was subsequently withdrawn for 22 days, and then was continuously administered for 5 days from Day 28 to Day 32.
# Paclitaxel single administration group: Paclitaxel 10 mg/kg/day (from Day 0 to Day 5, and from Day 28 to Day 32)
# Concomitant administration, FK330 100 mg/kg bid (200 mg/kg/day)+paclitaxel 10 mg/kg/day (from Day 0 to Day 5, and from Day 28 to Day 32)
# Sequential administration, FK330 100 mg/kg bid (200 mg/kg/day)+paclitaxel 10 mg/kg/day (from Day 0 to Day 5, and from Day 28 to Day 32)
# Continuous administration, FK330 100 mg/kg bid (200 mg/kg/day)+paclitaxel 10 mg/kg/day (from Day 0 to Day 5, and from Day 28 to Day 32)
# FK330 was orally gavaged (5 mL/kg) twice a day at an interval of 6 to 8 hours. In the Concomitant administration, FK330 was administered on the days of administration of paclitaxel (from Day 0 to Day 5, and from Day 28 to Day 32); and in the […] administration, FK330 was administered on the withdrawal days after the days of administration of paclitaxel (from Day 6 to Day 27, and from Day 33 to Day 55), while the continuous administration was carried out for all days from the day of experiment initiation to the day of experiment completion. Paclitaxel was administered by intravenous bolus injection (10 mL/kg) through the tail vein 2 to 4 hours after the administration of FK330.
# Every 3 to 4 days, the body weight and the tumor diameters, determined by using a digital caliper, were measured. The tumor volume was calculated from the calculation formula for ellipsoid volume of (major axis×[minor axis]^2×0.52).
# [2] = system: tumor tissues in human lung cancer cell line Calu-6 tumor-bearing mice; experiment: Example 8: immunochemical staining of iNOS, macrophage (F4/80) and nitrotyrosine in Calu-6 tumor tissue; format: in vivo, nude mice
# Text: The dose of FK330 is expressed in terms of the weight of a simple substance (non-hydrate). A paclitaxel injectable preparation (paclitaxel injection liquid “Sawai”) was purchased from Sawai Pharmaceutical Co., Ltd., and was used as paclitaxel. Rat anti-mouse F4/80 antigen monoclonal antibody, rabbit anti-iNOS polyclonal antibody, and rabbit anti-nitrotyrosine antibody were respectively purchased from AbD Serotec (Oxford, UK), Santa Cruz Biotechnology, Inc. (Santa Cruz, Calif., US), and Millipore Corp. (Billerica, Mass., USA) and used.
# FK330 was suspended (20 mg/mL) in a 0.5% aqueous methyl cellulose solution (0.5% MC) and orally administered. Paclitaxel was prepared with physiological saline for injection (Otsuka Pharmaceutical Group) to a concentration of 1 mg/mL at the time of use.
# Human lung cancer-derived Calu-6 (HTB-56) was obtained from American Type
# Culture Collection (VA, USA). The cells were cultured under the conditions of 37° C. and 5% CO2 by using RPMI1640 medium containing 10% heat-inactivated fetal bovine serum (FBS). The cells were harvested with trypsin and were suspended in PBS at 6×10^7 cells/mL, and the suspension was mixed with an equal amount of Matrigel (trade name) Basement Membrane Matrix (manufactured by Becton Dickinson Co., Bedford, Mass., USA).
# as §1, with “axis]^2×0.5)” for “axis]^2×0.52)”, “136.8” for “142.1”, “248.5” for “359.1”
# Drug administration was initiated from the first day of administration (Day 0). The respective groups (n=5) were treated as follows. FK330 was orally gavaged in an amount of 5 mL/kg from Day 0 to Day 6, and paclitaxel was intravenously administered through the tail vein in an amount of 10 mL/kg from Day 0 to Day 5.
# FK330 single administration group: FK330 100 mg/kg bid (200 mg/kg/day, from Day 0 to Day 6)
# Paclitaxel single administration group: Paclitaxel 10 mg/kg/day (from Day 0 to Day 5)
# Combined use group: FK330 100 mg/kg bid (200 mg/kg/day, from Day 0 to Day 6)+paclitaxel 10 mg/kg/day (from Day 0 to Day 5)
# FK330 was orally gavaged (5 mL/kg) twice a day at an interval of 6 to 8 hours. Paclitaxel was administered by intravenous bolus injection (10 mL/kg) through the tail vein 1 to 4 hours after the administration of FK330.
# On Day 6, the tumor tissues were harvested from the mice. Immersion fixation was carried out at 4° C. for 12 hours with a 4% para-formaldehyde-phosphate buffer solution (Wako Pure Chemical Industries, Ltd.). After the tissue fixation, according to the conventional method, sucrose replacement was carried out using 10%, 15% and 20% sucrose/phosphate buffer solutions in a stepwise manner at 4° C. After completion of the replacement, the cancer tissues were embedded in O.C.T. Compound (Toronto Research Chemicals, Inc., Toronto, Canada), and frozen blocks were prepared with dry ice/acetone and stored at −80° C.
# Frozen sections at 5 μm thickness were prepared by a cryostat (Sakura Finetech Japan Co., Ltd.) and were air-dried. The dried frozen sections were washed with a 4% para-formaldehyde-phosphate buffer solution, and then in order to inactivate the endogenous peroxidase activity, the sections were treated for 30 minutes with 0.3% hydrogen peroxide/methanol. Mouse macrophage, iNOS and nitrotyrosine staining was carried out by the following procedure. In regard to the iNOS and nitrotyrosine staining, antigen retrieval was carried out by microwave irradiation (3 minutes/500 W) before the immunochemical staining. […]
# [3] = paclitaxel 10 mg/kg/day i.v. Day 0 to Day 5 alone, tumor harvested Day 6
# [4] = combined use: FK330 100 mg/kg bid p.o. Day 0 to Day 6 + paclitaxel 10 mg/kg/day, Day 6
SMILES,"tumor volume at the end of the study ([1]; paclitaxel-only group, 10 mg/kg/day i.v. Day 0-5 and Day 28-32)","amount of nitrotyrosine (major end-product of NO) in the tumor tissue [2, 3]","iNOS protein expression in the tumor tissue [2, 3]","infiltration of macrophages (F4/80) in the tumor tissue [2, 3]",tumor volume reduction ratio compared with the paclitaxel-only group ([1]; concomitant administration of FK330 100 mg/kg bid + paclitaxel),tumor volume at the end of the study ([1]; concomitant administration of paclitaxel and FK330 100 mg/kg bid (FK330 on paclitaxel days only)),tumor volume at the end of the study ([1]; continuous administration of FK330 100 mg/kg bid (all days) + paclitaxel),tumor volume reduction ratio compared with the paclitaxel-only group ([1]; continuous administration of FK330 100 mg/kg bid + paclitaxel),tumor volume at the end of the study ([1]; sequential administration of FK330 100 mg/kg bid (on paclitaxel withdrawal days) + paclitaxel),tumor volume reduction ratio compared with the paclitaxel-only group ([1]; sequential administration of FK330 100 mg/kg bid + paclitaxel),"iNOS protein expression in the tumor [2, 4]","macrophage infiltration in the tumor [2, 4]","nitrotyrosine production in the tumor [2, 4]"
"CC(=O)O[C@H]1C(=O)[C@@]2(C)[C@H]([C@H](OC(=O)c3ccccc3)[C@]3(O)C[C@H](OC(=O)[C@H](O)[C@@H](NC(=O)c4ccccc4)c4ccccc4)C(C)=C1C3(C)C)[C@]1(OC(C)=O)CO[C@@H]1C[C@@H]2O [paclitaxel, reference compound]",1229.2±289.6 mm^3,increased,very clearly accentuated,clearly recognized,–,–,–,–,–,–,–,–,–
"O=C(/C=C/c1ccc(Cl)cc1)N[C@@H](Cc1ccccn1)C(=O)NCC(=O)N1CCC(Oc2cc(C(F)(F)F)ncn2)CC1 [FK330, N^2-[(2E)-3-(4-chlorophenyl)-2-propenoyl]-N-[2-oxo-2-(4-{[6-(trifluoromethyl)pyrimidin-4-yl]oxy}piperidin-1-yl)ethyl]-3-pyridin-2-yl-L-alaninamide]",–,–,–,–,54.5%,559.8±161.8 mm^3,168.5±66.0 mm^3,86.3%,1150.9±264.9 mm^3,6.4%,did not affect,did not affect,suppressed
